Test results published in PubChem BioAssay (NCI).
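Cells were grown in 96-well plates and exposed to each compound for 48 hours at five concentrations; endpoints were interpolated linearly between bracketing concentrations, or set to the highest concentration if not reached. GI50 = concentration required for 50% inhibition of growth. At the TGI there is no net growth.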

How the values were obtained:
Assay in all cases: NCI anticancer screen, dose series, 48 h
HCC-2998 colon = test system: HCC-2998 colon
MALME-3M melanoma = test system: MALME-3M melanoma
NCI-H226 lung = test system: NCI-H226 lung
RXF 393 renal = test system: RXF 393 renal
SK-MEL-2 melanoma = test system: SK-MEL-2 melanoma
ACHN renal = test system: ACHN renal
KM12 colon = test system: KM12 colon
A549 NSCLC = test system: A549 NSCLC
CCRF-CEM leukemia = test system: CCRF-CEM leukemia
M14 melanoma = test system: M14 melanoma
NCI/ADR-RES ovarian = test system: NCI/ADR-RES ovarian
SF-295 CNS = test system: SF-295 CNS
UO-31 renal = test system: UO-31 renal
PC-3 prostate = test system: PC-3 prostate
OVCAR-4 ovarian = test system: OVCAR-4 ovarian
CAKI-1 renal = test system: CAKI-1 renal
OVCAR-3 ovarian = test system: OVCAR-3 ovarian
HOP-62 NSCLC = test system: HOP-62 NSCLC
COLO 205 colon = test system: COLO 205 colon
SK-MEL-28 melanoma = test system: SK-MEL-28 melanoma
NCI-H522 lung = test system: NCI-H522 lung
NCI-H460 lung = test system: NCI-H460 lung
MDA-MB-231 breast = test system: MDA-MB-231 breast
SNB-75 CNS = test system: SNB-75 CNS
NCI-H23 lung = test system: NCI-H23 lung
RPMI-8226 leukemia = test system: RPMI-8226 leukemia
HS 578T breast = test system: HS 578T breast
OVCAR-8 ovarian = test system: OVCAR-8 ovarian
HT29 colon = test system: HT29 colon
BT-549 breast = test system: BT-549 breast
SF-539 CNS = test system: SF-539 CNS
MCF7 breast = test system: MCF7 breast
SN12C renal = test system: SN12C renal
HCT-15 colon = test system: HCT-15 colon
HL-60(TB) leukemia = test system: HL-60(TB) leukemia
U251 CNS = test system: U251 CNS
HOP-92 NSCLC = test system: HOP-92 NSCLC
SNB-19 CNS = test system: SNB-19 CNS
K-562 leukemia = test system: K-562 leukemia
MOLT-4 leukemia = test system: MOLT-4 leukemia
SK-MEL-5 melanoma = test system: SK-MEL-5 melanoma
SK-OV-3 ovarian = test system: SK-OV-3 ovarian
IGROV1 ovarian = test system: IGROV1 ovarian
MDA-MB-435 = test system: MDA-MB-435
SW-620 colon = test system: SW-620 colon
UACC-62 melanoma = test system: UACC-62 melanoma
TK-10 renal = test system: TK-10 renal
786-0 renal = test system: 786-0 renal
LOX IMVI melanoma = test system: LOX IMVI melanoma
A498 renal = test system: A498 renal
UACC-257 melanoma = test system: UACC-257 melanoma
OVCAR-5 ovarian = test system: OVCAR-5 ovarian
DU-145 prostate = test system: DU-145 prostate
SF-268 CNS = test system: SF-268 CNS
HCT-116 colon = test system: HCT-116 colon
T-47D breast = test system: T-47D breast

Q: Which results are given for `C#CC[C@H](c1nc2cc(Cl)ccc2c(=O)n1Nc1ccccc1)N(CCCN)C(=O)c1cccc(Cl)c1F`?
A: GI50 (HCC-2998 colon): 178 nM; TGI (HCC-2998 colon): 1390 nM; GI50 (MALME-3M melanoma): 1050 nM; TGI (MALME-3M melanoma): 2450 nM; GI50 (NCI-H226 lung): 1630 nM; TGI (NCI-H226 lung): 4.56 µM; GI50 (RXF 393 renal): 284 nM; TGI (RXF 393 renal): 1370 nM; GI50 (SK-MEL-2 melanoma): 177 nM; TGI (SK-MEL-2 melanoma): 1290 nM; GI50 (ACHN renal): 1730 nM; TGI (ACHN renal): 3.89 µM; GI50 (KM12 colon): 180 nM; TGI (KM12 colon): 1630 nM; GI50 (A549 NSCLC): 255 nM; TGI (A549 NSCLC): 1870 nM; GI50 (CCRF-CEM leukemia): 134 nM; TGI (CCRF-CEM leukemia): 1910 nM; GI50 (M14 melanoma): 300 nM; TGI (M14 melanoma): 1630 nM; GI50 (NCI/ADR-RES ovarian): 14.2 µM; TGI (NCI/ADR-RES ovarian): 30 µM; GI50 (SF-295 CNS): 353 nM; TGI (SF-295 CNS): 1480 nM; GI50 (UO-31 renal): 2940 nM; TGI (UO-31 renal): 8.07 µM; GI50 (PC-3 prostate): 196 nM; TGI (PC-3 prostate): 3.16 µM; GI50 (OVCAR-4 ovarian): 1160 nM; TGI (OVCAR-4 ovarian): 2540 nM; GI50 (CAKI-1 renal): 2600 nM; TGI (CAKI-1 renal): 8.19 µM; GI50 (OVCAR-3 ovarian): 242 nM; TGI (OVCAR-3 ovarian): 1190 nM; GI50 (HOP-62 NSCLC): 842 nM; TGI (HOP-62 NSCLC): 2230 nM; GI50 (COLO 205 colon): 95.1 nM; TGI (COLO 205 colon): 868 nM; GI50 (SK-MEL-28 melanoma): 765 nM; TGI (SK-MEL-28 melanoma): 2220 nM; GI50 (NCI-H522 lung): 89.8 nM; TGI (NCI-H522 lung): 935 nM; GI50 (NCI-H460 lung): 161 nM; TGI (NCI-H460 lung): 1310 nM; GI50 (MDA-MB-231 breast): 107 nM; TGI (MDA-MB-231 breast): 601 nM; GI50 (SNB-75 CNS): 251 nM; TGI (SNB-75 CNS): 1530 nM; GI50 (NCI-H23 lung): 624 nM; TGI (NCI-H23 lung): 11.2 µM; GI50 (RPMI-8226 leukemia): 131 nM; TGI (RPMI-8226 leukemia): 1160 nM; GI50 (HS 578T breast): 162 nM; TGI (HS 578T breast): 1190 nM; GI50 (OVCAR-8 ovarian): 511 nM; TGI (OVCAR-8 ovarian): 1980 nM; GI50 (HT29 colon): 337 nM; TGI (HT29 colon): 1320 nM; GI50 (BT-549 breast): 798 nM; TGI (BT-549 breast): 3.33 µM; GI50 (SF-539 CNS): 183 nM; TGI (SF-539 CNS): 650 nM; GI50 (MCF7 breast): 33.7 nM; TGI (MCF7 breast): 1360 nM; GI50 (SN12C renal): 205 nM; TGI (SN12C renal): 1980 nM; GI50 (HCT-15 colon): 2150 nM; TGI (HCT-15 colon): 5.68 µM; GI50 (HL-60(TB) leukemia): 130 nM; TGI (HL-60(TB) leukemia): 605 nM; GI50 (U251 CNS): 293 nM; TGI (U251 CNS): 1270 nM; GI50 (HOP-92 NSCLC): 179 nM; TGI (HOP-92 NSCLC): 1650 nM; GI50 (SNB-19 CNS): 520 nM; TGI (SNB-19 CNS): 7.85 µM; GI50 (K-562 leukemia): 96.8 nM; TGI (K-562 leukemia): 1850 nM; GI50 (MOLT-4 leukemia): 264 nM; TGI (MOLT-4 leukemia): 2800 nM; GI50 (SK-MEL-5 melanoma): 727 nM; TGI (SK-MEL-5 melanoma): 2140 nM; GI50 (SK-OV-3 ovarian): 116 nM; TGI (SK-OV-3 ovarian): 1590 nM; GI50 (IGROV1 ovarian): 979 nM; TGI (IGROV1 ovarian): 5.8 µM; GI50 (MDA-MB-435): 28.1 nM; TGI (MDA-MB-435): 91.5 nM; GI50 (SW-620 colon): 237 nM; TGI (SW-620 colon): 1810 nM; GI50 (UACC-62 melanoma): 636 nM; TGI (UACC-62 melanoma): 2000 nM; GI50 (TK-10 renal): 1390 nM; TGI (TK-10 renal): 2800 nM; GI50 (786-0 renal): 1150 nM; TGI (786-0 renal): 2630 nM; GI50 (LOX IMVI melanoma): 325 nM; TGI (LOX IMVI melanoma): 1840 nM; GI50 (A498 renal): 626 nM; TGI (A498 renal): 3.43 µM; GI50 (UACC-257 melanoma): 1020 nM; TGI (UACC-257 melanoma): 2370 nM; GI50 (OVCAR-5 ovarian): 419 nM; TGI (OVCAR-5 ovarian): 2560 nM; GI50 (DU-145 prostate): 215 nM; TGI (DU-145 prostate): 750 nM; GI50 (SF-268 CNS): 214 nM; TGI (SF-268 CNS): 2610 nM; GI50 (HCT-116 colon): 40.3 nM; TGI (HCT-116 colon): 1300 nM; GI50 (T-47D breast): 484 nM; TGI (T-47D breast): 1980 nM
